The values that follow come from publication PMC2289708 (The Journal of Cell Biology, 1992).

Data set [1] has as its system G-actin/TB4 complex in human PMNs. As to the kind of experiment: Change in G-actin/TB4 complex band after stimulation of PMNs. Particulars: 10^-7 M FNLLP, 30 s. The class given is cell-based.
In the next data set the test system is F-actin in human PMNs. The data set is described as follows: F-actin level in PMNs, rhodamine phalloidin binding. The data set is classed as cell-based.
For a further data set, the target named is pyrenyl G-actin (Oryctolagus cuniculus, UniProt P68135). The class given is biochemical, rabbit.
The format of data set [2] is in vitro ADME, human. As to conditions: lysed on ice for 5 min before addition of PCA, relative to samples receiving PCA <30 s after lysis; HPLC; not shown.
A further data set has as its system G-actin. As to the kind of experiment: Non-denaturing PAGE and immunoblot of PMN supernatants for G-actin/TB4 complex. The class given is binding, human. (A western blot detects proteins with antibodies after separation by electrophoresis.)
Data set [3] concerns the target muscle G-actin. As to the kind of experiment: TB4 binding to muscle G-actin from rates of pyrenyl actin elongation. The arrangement: species or system rabbit.
Data set [4] deals with muscle G-actin. As to conditions: cited from earlier work.
Data set [5] relates to platelet actin (cell actin). As to conditions: ref Weber et al., 1992, cited from earlier work.
The conditions of data set [6]: ref Safer et al., 1990; cited from earlier work.

Turning to “formylnorleucyileucylphenylalanine [FNLLP]”, in [1] (23°C, n = 6), the “TB4 staining of actin/TB4 band after stimulation, anti-TB4 immunoblot” value was 53 + 9 % of the resting cell level. In addition, in data set [1] (non-denaturing gel), the “intensity of G-actin/TB4 band, Coomassie blue” value is “reduces the intensity of the G-actin/T~4 band”. The F-actin upon stimulation with F-actin in human PMNs (10^-7 M FNLLP, 30 s, n = 6) is 200 + 42 % of the amount in resting cel. Besides, the “F-actin of stimulated vs resting cells (Fig. 4 experiment)” value in the data set on F-actin in human PMNs (10^-7 M FNLLP, 30 s, not shown) is reported as “approximately twice”. Besides, the “F-actin increase upon stimulation (Fig. 3a)” value in the data set with F-actin in human PMNs (10^-7 M FNLLP, 30 s, single representative experiment of Fig. 3) came out at 1.5 fold. At pyrenyl G-actin (Fig. 4, R2 = 0.777, resting supernatant slope 13.6, 10^-7 M FNLLP, 30 s), the “slope of pyrenyl actin polymerization in stimulated cell supernatant” value came out at 6.1 fluorescent U/min. For the same compound, the “inhibitory activity of boiled supernatants, resting vs stimulated” value against pyrenyl G-actin (boiled supernatants from resting and FNLLP-stimulated cells, not shown) is “approximately equal inhibitory activity”. Moreover, the “rate of pointed end polymerization in stimulated supernatant (Fig. 4)” value on pyrenyl G-actin (single experiment of Fig. 4, 10^-7 M FNLLP, 30 s) is listed as 45 % of the rate in the resting supernatant.
Take Thymosin beta 4 [TB4]: in [2], the “TB4 remaining in cell lysate” value came out at 95%. Further, the “PMN band antibody reactivity (actin and TB4)” value in the data set with G-actin (immunoblot of band with mobility similar to actin/TB4 complex) is “reacts positively with antibodies to both actin”. Besides, in the data set with G-actin (supernatants from resting PMNs, 7.5% non-denaturing gels), the “fraction of G-actin migrating like G-actin/T beta 4 complex” value is recorded as “a large fraction of G-actin in supernatants prepared from resting PMNs has a mobility similar to the G- actin/T beta 4 complex”. Further, the “kinetics of bovine spleen T beta 4 binding to muscle pyrenyl G-actin” value at muscle G-actin [3] was “sufficiently rapid to accommodate the rapid changes in actin polymerization and depolymerization observed in vivo”. Besides, the “effect of preincubation with TB4 on polymerization rate” value with muscle G-actin [3] (2 μM pyrenyl G-actin with 5 μM TB4, F-actin nuclei) was “slower rate of polymerization”. Also, the “time for slope to shift to that of preincubated samples” value in the data set with muscle G-actin [3] (5 μM TB4 added after polymerization started, mixing interval, all n = 7 samples) is on record as at most 6 s. For the same compound, in the data set on muscle G-actin [3] (bovine spleen TB4 5 μM, 2 μM pyrenyl muscle G-actin, Equation 1, SD 0.003, n = 7), the “kon (rate constant of binding), minimal” value was over 45000 M⁻¹ s⁻¹. Also, the “koff, minimal” value with muscle G-actin [3] (from Kd and minimal kon, muscle actin) is “greater than 0.09 s-1”. Further, the Kd at muscle G-actin [4] (read-out: Kd for muscle actin (literature), ref Weber et al., 1992) was 2000 nM; in [5] (read-out: Kd for platelet / cell actin), 600 nM. The “kon (literature)” value in the data set with muscle G-actin [4] (ref Goldschmidt-Clermont et al. (1992)) was 0.75 s⁻¹. In the data set with muscle G-actin [4] (ref Janmey et al., 1992), the “effect of PIPs on binding” value was “nor affected by PIPs”. Further, the “binding to pyrene vs unlabeled muscle actin” value with muscle G-actin [4] (ref Weber et al., 1992) is “binds equally well to pyrene and unlabeled muscle actin”. For the same compound, the “calcium sensitivity of binding” value with muscle G-actin [4] (ref Weber et al., 1992) was “neither calcium sensitive”. Further, the “affinity for nonmuscle vs muscle actin” value in data set [5] is given as “approximately threefold higher”. Besides, the activity after boiling result in data set [6] is “remains active after boiling”.
Consider `C=C1[C@@H](C)[C@H]2[C@H](Cc3ccccc3)NC(=O)[C@]23OC(=O)/C=C/[C@H](O)CCC[C@@H](C)C/C=C/[C@H]3[C@@H]1O` [cytochalasin B], for which the “effect on chemoattractant induced increase in F-actin” value in the data set with F-actin in human PMNs (cytochalasin B with FNLLP, 2 μM in Fig. 3a) was “blocks the chemoattractant induced in- crease in F-actin”.
